In ChEMBL document CHEMBL3885861, “Open TG-GATES”:

Species: Rattus norvegicus
Test: Open TG-GATES - Regimen: Daily Repeat
Assay type: toxicity, organism-based, Sprague-Dawley
Parameters: regimen Daily Repeat, gender Male, age 6 weeks
Conditions: in vivo, po, 30 mg/kg, route gavage, dose level Low; for APTT / Bas / Eos / Fbg / Hb / Ht / Lym / MCH / MCHC / MCV / Mono / Neu / PT / Plat / RBC / Ret / WBC: tissue Blood; for KIDNEY_L / KIDNEY_R / KIDNEY_TOTAL: tissue Kidney; for LIVER: tissue Liver; for A/G / ALP / ALT / AST / BUN / CRE / Ca / Cl / DBIL / GLC / IP / K / LDH / Na / PL / RALB / TBIL / TC / TG / TP / gamma-GTP: tissue Plasma

C[C@]12CCC(=O)C=C1CC[C@@H]1[C@@H]2CC[C@@]2(C)[C@H]1CC[C@]2(C)O [METHYLTESTOSTERONE]
TERMINAL_BW (72 h, time 3 day): 237.2 g | APTT (72 h, time 3 day): 15.8 s | Bas (72 h, time 3 day): 0% | Eos (72 h, time 3 day): 1.2% | Fbg (72 h, time 3 day): 296.2 mg/dL | Hb (72 h, time 3 day): 13.3 g/dL | Ht (72 h, time 3 day): 38.8% | Lym (72 h, time 3 day): 75.2% | MCH (72 h, time 3 day): 21.5 pg | MCHC (72 h, time 3 day): 34.2% | MCV (72 h, time 3 day): 63 fL | Mono (72 h, time 3 day): 2.6% | Neu (72 h, time 3 day): 20.8% | PT (72 h, time 3 day): 12.8 s | Plat (72 h, time 3 day): 111.2 x10_4/uL | RBC (72 h, time 3 day): 617 x10_4/ul | Ret (72 h, time 3 day): 6.6% | WBC (72 h, time 3 day): 57.6 x10_2/uL | KIDNEY_L (72 h, time 3 day): 1 g | KIDNEY_R (72 h, time 3 day): 1 g | KIDNEY_TOTAL (72 h, time 3 day): 2 g | LIVER (72 h, time 3 day): 11.1 g | A/G (72 h, time 3 day): 0.9 | ALP (72 h, time 3 day): 1870.2 IU/L | ALT (72 h, time 3 day): 45.4 IU/L | AST (72 h, time 3 day): 69.6 IU/L | BUN (72 h, time 3 day): 15 mg/dL | CRE (72 h, time 3 day): 0.2 mg/dL | Ca (72 h, time 3 day): 11 mg/dL | Cl (72 h, time 3 day): 107.6 meq/L | DBIL (72 h, time 3 day): 0.018 mg/dL | GLC (72 h, time 3 day): 195 mg/dL | IP (72 h, time 3 day): 7.9 mg/dL | K (72 h, time 3 day): 4.1 meq/L | LDH (72 h, time 3 day): 58.2 IU/L | Na (72 h, time 3 day): 144 meq/L | PL (72 h, time 3 day): 144 mg/dL | RALB (72 h, time 3 day): 2.7 g/dL | TBIL (72 h, time 3 day): 0.03 mg/dL | TC (72 h, time 3 day): 67.2 mg/dL | TG (72 h, time 3 day): 123.6 mg/dL | TP (72 h, time 3 day): 5.8 g/dL | gamma-GTP (72 h, time 3 day): 1.4 IU/L | TERMINAL_BW ([…], time 7 day): 271.8 g | TERMINAL_BW ([…], time 14 day): 329.8 g | TERMINAL_BW ([…], time 28 day): 409.3 g | APTT ([…], time 7 day): 16.5 s | Bas ([…], time 7 day): 0% | Eos ([…], time 7 day): 1% | Fbg ([…], time 7 day): 308.4 mg/dL | Hb ([…], time 7 day): 13.1 g/dL | Ht ([…], time 7 day): 38.1% | Lym ([…], time 7 day): 76.8% | MCH ([…], time 7 day): 21 pg | MCHC ([…], time 7 day): 34.4% | MCV ([…], time 7 day): 61 fL | Mono ([…], time 7 day): 3% | Neu ([…], time 7 day): 18.6% | PT ([…], time 7 day): 13 s | Plat ([…], time 7 day): 111.9 x10_4/uL | RBC ([…], time 7 day): 625.6 x10_4/ul | Ret ([…], time 7 day): 5.8% | WBC ([…], time 7 day): 78.3 x10_2/uL | APTT ([…], time 14 day): 17.7 s | Bas ([…], time 14 day): 0.2% | Eos ([…], time 14 day): 1% | Fbg ([…], time 14 day): 289.2 mg/dL | Hb ([…], time 14 day): 14.4 g/dL | Ht ([…], time 14 day): 41.7% | Lym ([…], time 14 day): 79.2% | MCH ([…], time 14 day): 20.6 pg | MCHC ([…], time 14 day): 34.6% | MCV ([…], time 14 day): 59.6 fL | Mono ([…], time 14 day): 2.4% | Neu ([…], time 14 day): 16% | PT ([…], time 14 day): 13.3 s | Plat ([…], time 14 day): 114.4 x10_4/uL | RBC ([…], time 14 day): 700.2 x10_4/ul | Ret ([…], time 14 day): 3.9% | WBC ([…], time 14 day): 96.1 x10_2/uL | APTT ([…], time 28 day): 19.2 s | Bas ([…], time 28 day): 0% | Eos ([…], time 28 day): 1.4% | Fbg ([…], time 28 day): 300.2 mg/dL | Hb ([…], time 28 day): 15.7 g/dL | Ht ([…], time 28 day): 44.9% | Lym ([…], time 28 day): 75.8% | MCH ([…], time 28 day): 19.5 pg | MCHC ([…], time 28 day): 35% | MCV ([…], time 28 day): 55.6 fL | Mono ([…], time 28 day): 2.6% | Neu ([…], time 28 day): 20.2% | PT ([…], time 28 day): 13.1 s | Plat ([…], time 28 day): 101.6 x10_4/uL | RBC ([…], time 28 day): 809.2 x10_4/ul | Ret ([…], time 28 day): 2.2% | WBC ([…], time 28 day): 84 x10_2/uL | KIDNEY_L ([…], time 7 day): 1.1 g | KIDNEY_R ([…], time 7 day): 1.1 g | KIDNEY_TOTAL ([…], time 7 day): 2.3 g | KIDNEY_L ([…], time 14 day): 1.3 g | KIDNEY_R ([…], time 14 day): 1.2 g | KIDNEY_TOTAL ([…], time 14 day): 2.5 g | KIDNEY_L ([…], time 28 day): 1.4 g | KIDNEY_R ([…], time 28 day): 1.4 g | KIDNEY_TOTAL ([…], time 28 day): 2.9 g | LIVER ([…], time 7 day): 12.5 g | LIVER ([…], time 14 day): 14.5 g | LIVER ([…], time 28 day): 17.1 g | A/G ([…], time 7 day): 0.9 | ALP ([…], time 7 day): 1824.8 IU/L | ALT ([…], time 7 day): 46.8 IU/L | AST ([…], time 7 day): 75.2 IU/L | BUN ([…], time 7 day): 15 mg/dL | CRE ([…], time 7 day): 0.2 mg/dL | Ca ([…], time 7 day): 10.9 mg/dL | Cl ([…], time 7 day): 106 meq/L | DBIL ([…], time 7 day): 0.02 mg/dL | GLC ([…], time 7 day): 190.4 mg/dL | IP ([…], time 7 day): 7.6 mg/dL | K ([…], time 7 day): 4.1 meq/L | LDH ([…], time 7 day): 63.6 IU/L | Na ([…], time 7 day): 142.4 meq/L | PL ([…], time 7 day): 133 mg/dL | RALB ([…], time 7 day): 2.7 g/dL | TBIL ([…], time 7 day): 0.026 mg/dL | TC ([…], time 7 day): 54.6 mg/dL | TG ([…], time 7 day): 133 mg/dL | TP ([…], time 7 day): 5.8 g/dL | gamma-GTP ([…], time 7 day): 1.2 IU/L | A/G ([…], time 14 day): 0.8 | ALP ([…], time 14 day): 1301 IU/L | ALT ([…], time 14 day): 49.8 IU/L | AST ([…], time 14 day): 72.8 IU/L | BUN ([…], time 14 day): 16.4 mg/dL | CRE ([…], time 14 day): 0.2 mg/dL | Ca ([…], time 14 day): 10.5 mg/dL | Cl ([…], time 14 day): 106.8 meq/L | DBIL ([…], time 14 day): 0.02 mg/dL | GLC ([…], time 14 day): 192.6 mg/dL | IP ([…], time 14 day): 7.1 mg/dL | K ([…], time 14 day): 4 meq/L | LDH ([…], time 14 day): 132.6 IU/L | Na ([…], time 14 day): 142.2 meq/L | PL ([…], time 14 day): 134.2 mg/dL | RALB ([…], time 14 day): 2.7 g/dL | TBIL ([…], time 14 day): 0.026 mg/dL | TC ([…], time 14 day): 54 mg/dL | TG ([…], time 14 day): 178.6 mg/dL | TP ([…], time 14 day): 5.9 g/dL | gamma-GTP ([…], time 14 day): 1.2 IU/L | A/G ([…], time 28 day): 0.8 | ALP ([…], time 28 day): 1236.2 IU/L | ALT ([…], time 28 day): 43.6 IU/L | AST ([…], time 28 day): 66.8 IU/L | BUN ([…], time 28 day): 16.6 mg/dL | CRE ([…], time 28 day): 0.2 mg/dL | Ca ([…], time 28 day): 11.1 mg/dL | Cl ([…], time 28 day): 105.2 meq/L | DBIL ([…], time 28 day): 0.022 mg/dL | GLC ([…], time 28 day): 192 mg/dL | IP ([…], time 28 day): 6.7 mg/dL | K ([…], time 28 day): 3.9 meq/L | LDH ([…], time 28 day): 76.6 IU/L | Na ([…], time 28 day): 143.6 meq/L | PL ([…], time 28 day): 141.4 mg/dL | RALB ([…], time 28 day): 2.9 g/dL | TBIL ([…], time 28 day): 0.034 mg/dL | TC ([…], time 28 day): 56.2 mg/dL | TG ([…], time 28 day): 214 mg/dL | TP ([…], time 28 day): 6.3 g/dL | gamma-GTP ([…], time 28 day): 1 IU/L
